Data: paper PMC9258905, “Discovery of Quercetin and Its Analogs as Potent OXA-48 Beta-Lactamase Inhibitors” (Frontiers in Pharmacology, 2022)
Read-outs that look alike come from different tables or passages of the source.

Legend:
[1] = system: E.coli BW25113 ∆acrA∆bamB (OXA-48); type: cell-based; conditions: for reduction in the piperacillin MIC: compound at 64 μg/mL
Method: (§1) The recombinant plasmid containing the Pbla promoter and OXA-48 constructed above was then transformed into BW25113, BW25113 ∆acrA, BW25113 ∆bamB, and BW25113 ∆acrA∆bamB. The above strains were used to study the minimum inhibitory concentration (MIC). Antibiotic susceptibility tests were performed by the microdilution method following Clinical and Laboratory Standards Institute (CLSI) criteria ([CLSI, 2015]). Four E. coli strains expressing OXA-48 were used to assess the inhibitors. The susceptibility to piperacillin/imipenem combined with the compound at a concentration of 16 or 64 μg/mL was determined. […] Each measurement was conducted in triplicate. The fractional inhibitory concentration index (FICI) was determined according to the following formula: FICI = MIC (QT) in combination/MIC (QT) alone + MIC (PIP) in combination/MIC (PIP) alone. The drug interactions are defined as synergistic if the FICI is ≤0.5, indifferent if the FICI is >0.5 and ≤4.0, and antagonistic if the FICI is >4.0.
(§2) To investigate whether the compounds could restore the antimicrobial activity of β-lactam, the MICs of β-lactam antibiotics against resistant Gram-negative bacteria in the absence and presence of compounds (fisetin, 3′,4′,7-trihydroxyflavone, luteolin or quercetin) were determined by using published guidelines described by CLSI ([CLSI, 2015]). Specifically, we used OXA-48 producing strains E. coli BW25113, BW25113 ∆acrA, BW25113 ∆bamB, and BW25113 ∆acrA∆bamB as resistant Gram-negative bacteria. […] Imipenem, a carbapenem antibiotic, was applied at increasing concentrations ranging from 0.03 μg/mL to 4 μg/mL. The compounds were tested at 64 and 16 μg/mL.

[2] = biological target: T1, OXA-48 (Klebsiella pneumoniae, UniProt Q6XEC0); assay: Enzyme inhibition assay against purified OXA-48 with nitrocefin as substrate; type: biochemical; conditions: for percent inhibition against OXA-48 / inhibition at 50 µM: nitrocefin substrate; for percent inhibition against OXA-48: 50 µM
T1 construct: made in house; host or cells: E. coli BL21(DE3)
Method: The inhibitory activity of compounds against the purified OXA-48 was tested on a BioTek HTS reader. The reactions were conducted in 0.1 M phosphate buffer (pH 7.0) supplemented with 50 mM NaHCO3 at 25°C with a final assay volume of 100 μL. The concentrations of enzyme and substrate were 12 nM and 200 μM, respectively. The initial reaction rates in the absence and presence of the compound were monitored at 495 nm in triplicate. The inhibitor concentration causing a 50% decrease in enzyme activity (IC50) was determined by plotting the percent inhibition against the log10 of the inhibitor concentration and fitting the data in a dose–response-inhibition model using GraphPad Prism 7.0.
Quercetin is a member of the flavonoid class with diverse structures obtained from nature, some of which have been used for the treatment of infectious diseases in traditional medical systems ([Farhadi et al., 2019]). To investigate whether quercetin and other flavonoids are OXA-48 inhibitors, the enzyme inhibition assays were conducted on a BioTek HTS reader using nitrocefin as a substrate. The concentrations of enzyme and substrate were 12 nM and 200 μM, respectively. The initial hydrolysis rate of nitrocefin was monitored at 495 nm. The percentage inhibition is defined as the enzyme activity in the absence of inhibitor (100%) minus the remaining activity in the presence of inhibitor.

[3] = system: E.coli BW25113 ∆acrA (OXA-48); type: cell-based
Method: as §1, §2

[4] = system: E.coli BW25113 ∆bamB (OXA-48); type: cell-based
Method: as §1, §2

[5] = system: E.coli BW25113 (OXA-48); type: cell-based
Method: as §1, §2

[6] = system: mice; conditions: ref Ardeshir et al., 2018; cited from earlier work
[7] = biological target: T1, OXA-48; assay: Inhibition kinetics (Lineweaver-Burk plots) of OXA-48-catalyzed nitrocefin hydrolysis; type: biochemical
Method: The inhibition mode of quercetin and the inhibition constant (K i) were determined using a Lineweaver–Burk plot by fitting the initial rate versus the substrate concentration at each inhibitor concentration using SigmaPlot 12.0. The nitrocefin concentrations were 25, 50, 75, and 100 μM, respectively. The initial velocity was determined by measuring the […] as described above. All reaction rates were determined in triplicate.
To determine the inhibition mode of the flavonoids, the inhibition kinetics of quercetin, fisetin and luteolin against OXA-48 in the presence of different concentrations of substrate were determined, and the inhibition modes were determined by generating Lineweaver-Burk plots.

[8] = system: E. coli BW25113 ∆acrA∆bamB (OXA-48); assay: Mouse systemic infection model; type: in vivo, Kunming mice; conditions: 10 mg/kg each, intravenous, 1 h post infection; organs 24 h post-infection; vs untreated group
[9] = system: KPC-2; set-up: method as in Papp-Wallace et al., 2010; conditions: for KPC-2; ref Papp-Wallace et al., 2010; cited from earlier work
[10] = read-out: percent inhibition against OXA-48, at 50 μM compound
[11] = purified OXA-48 12 nM, nitrocefin 200 μM, 0.1 M phosphate buffer pH 7.0, 50 mM NaHCO3, 25°C, read-out: IC50 against OXA-48

T1 sequence (Q6XEC0 23-265 limits assumed): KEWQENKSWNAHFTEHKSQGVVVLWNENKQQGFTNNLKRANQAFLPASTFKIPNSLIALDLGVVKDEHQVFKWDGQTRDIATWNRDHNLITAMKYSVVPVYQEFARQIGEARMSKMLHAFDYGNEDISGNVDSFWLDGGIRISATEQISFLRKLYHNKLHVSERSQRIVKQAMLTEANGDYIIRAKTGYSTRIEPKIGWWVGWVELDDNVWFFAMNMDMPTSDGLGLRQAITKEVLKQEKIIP

## O=c1cc(-c2ccc(O)c(O)c2)oc2cc(O)ccc12 [3′,4′,7-trihydroxyflavone]
[1]
  reduction in the piperacillin MIC: 8 fold
[2]
  IC50: 1.89 ± 0.11 µM
[2]; at 50 μM compound
  percent inhibition against OXA-48: more than 50%
[2]; at 50 μM compound, listed as 3',4',7-trihydroxyflavone
  percent inhibition against OXA-48: 80%

## O=c1cc(-c2ccc(O)cc2)oc2cc(O)cc(O)c12 [Apigenin]
[2]
  IC50: 3.64 ± 0.24 µM
[2]; at 50 μM compound
  percent inhibition against OXA-48: 77%
[2]; at 50 μM compound, listed as apigenin
  percent inhibition against OXA-48: more than 50%

## O=C(O)[C@H]1O[C@@H](Oc2cc3oc(-c4ccccc4)cc(=O)c3c(O)c2O)[C@H](O)[C@@H](O)[C@@H]1O [Baicalin]
[2]; [10]
  inhibition at 50 µM: 25%

## O=c1cc(-c2ccccc2)oc2cc(O)cc(O)c12 [Chrysin]
[2]
  IC50: 108 ± 11 µM
[2]; at 50 μM compound
  percent inhibition against OXA-48: 8%
[2]; at 50 μM compound, listed as chrysin
  percent inhibition against OXA-48: less than 20%

## COc1ccc(-c2cc(=O)c3c(O)cc(O[C@@H]4O[C@H](CO[C@@H]5O[C@@H](C)[C@H](O)[C@@H](O)[C@H]5O)[C@@H](O)[C@H](O)[C@H]4O)cc3o2)cc1O [Diosmin]
[2]; at 50 μM compound
  percent inhibition against OXA-48: 11%
[2]; [10]
  inhibition at 50 µM: < 20%

## O=c1c(O)c(-c2ccccc2)oc2cc(O)cc(O)c12 [Galangin]
[2]
  IC50: 216 ± 15 µM
[2]; at 50 μM compound
  percent inhibition against OXA-48: 3%
[2]; at 50 μM compound, listed as galangin
  percent inhibition against OXA-48: less than 20%

## COc1ccc(-c2oc3c(CC=C(C)C)c(O[C@@H]4O[C@H](CO)[C@@H](O)[C@H](O)[C@H]4O)cc(O)c3c(=O)c2O[C@@H]2O[C@@H](C)[C@H](O)[C@@H](O)[C@H]2O)cc1 [Icariin]
[2]; at 50 μM compound
  percent inhibition against OXA-48: 0.3%
[2]; at 50 μM compound, listed as icarlin
  percent inhibition against OXA-48: less than 20%

## C[C@@H](O)[C@H]1C(=O)N2C(C(=O)O)=C(SCCN=CN)C[C@H]12 [Imipenem]
[3]; inhibitor at 16 mg/L
  Antibiotic MIC: 4 µg/mL
[3]; inhibitor at 64 mg/L
  Antibiotic MIC: 4 µg/mL
[1]; inhibitor at 16 mg/L
  Antibiotic MIC: 4 µg/mL
[1]; inhibitor at 64 mg/L
  Antibiotic MIC: 4 µg/mL
[4]; inhibitor at 16 mg/L
  Antibiotic MIC: 4 µg/mL
[4]; inhibitor at 64 mg/L
  Antibiotic MIC: 4 µg/mL
[5]; inhibitor at 16 mg/L
  Antibiotic MIC: 4 µg/mL
[5]; inhibitor at 64 mg/L
  Antibiotic MIC: 4 µg/mL

## O=c1c(O[C@@H]2O[C@H](CO)[C@@H](O)[C@H](O)[C@H]2O)c(-c2ccc(O)c(O)c2)oc2cc(O)cc(O)c12 [Isoquercitrin]
[2]; at 50 μM compound
  percent inhibition against OXA-48: 61%
[2]; [11]
  IC50: 11.5 ± 1.22 µM
[2]; [10]
  inhibition at 50 µM: > 50%

## O=c1c(O)c(-c2ccc(O)cc2)oc2cc(O)cc(O)c12 [Kaempferol]
[2]
  IC50: 4.54 ± 0.05 µM
[2]; at 50 μM compound
  percent inhibition against OXA-48: 76%
[2]; at 50 μM compound, listed as kaempferol
  percent inhibition against OXA-48: more than 50%

## O=c1cc(-c2ccc(O)c(O)c2)oc2cc(O)cc(O)c12 [Luteolin]
[1]
  reduction in the piperacillin MIC: 4 fold
[1]; compound at a dose of 64 μg/mL
  MIC decrease for imipenem: 2 fold
[6]
  LD50: 150 mg/kg
[2]; at 50 μM compound
  percent inhibition against OXA-48: 81%
[2]; at 50 μM compound, listed as luteolin
  percent inhibition against OXA-48: more than 50%
[2]; [11]
  IC50: 0.55 ± 0.02 µM
[7]; Lineweaver-Burk plots, Km unchanged, Vmax decreased
  inhibition mode: noncompetitively inhibited
[7]; nitrocefin 25, 50, 75, 100 μM, Lineweaver-Burk
  Ki: 0.82 ± 0.05 µM

## O=C1C[C@@H](c2ccc(O)cc2)Oc2cc(O)cc(O)c21 [Naringenin]
[2]
  IC50: 68.1 ± 4.12 µM
[2]; at 50 μM compound, read-out: percent inhibition against OXA-48
  inhibition at 50 µM: 27%

## CCN1CCN(C(=O)N[C@@H](C(=O)N[C@@H]2C(=O)N3[C@@H]2SC(C)(C)[C@@H]3C(=O)O)c2ccccc2)C(=O)C1=O [Piperacillin]
[3]; inhibitor at 16 mg/L
  Antibiotic MIC: 4096 µg/mL
[3]; inhibitor at 64 mg/L
  Antibiotic MIC: 4096 µg/mL
[1]; codeletion of bamB and acrA vs wild type
  increase in the piperacillin susceptibility: 8 fold
[1]; inhibitor at 16 mg/L
  Antibiotic MIC: 512 µg/mL
[1]; inhibitor at 64 mg/L
  Antibiotic MIC: 512 µg/mL
[4]; deletion of bamB alone vs wild type
  increase in the piperacillin susceptibility: 4 fold
[4]; inhibitor at 16 mg/L
  Antibiotic MIC: 1024 µg/mL
[4]; inhibitor at 64 mg/L
  Antibiotic MIC: 1024 µg/mL
[5]; inhibitor at 16 mg/L
  Antibiotic MIC: 4096 µg/mL
[5]; inhibitor at 64 mg/L
  Antibiotic MIC: 4096 µg/mL
[8]
  bacterial load in spleen and liver: did not show a significant reduction of bacterial load

## C[C@@H]1O[C@@H](OC[C@H]2O[C@@H](Oc3c(-c4ccc(O)c(O)c4)oc4cc(O)cc(O)c4c3=O)[C@H](O)[C@@H](O)[C@@H]2O)[C@H](O)[C@H](O)[C@H]1O [Rutin]
[2]; at 50 μM compound
  percent inhibition against OXA-48: 9%
[2]; larger group at position 3
  inhibitory activity against OXA-48 (in words): no inhibitory activity

## COc1ccc(-c2cc(=O)c3c(OC)c(OC)c(OC)c(OC)c3o2)cc1 [Tangeretin]
[2]; [10]
  inhibition at 50 µM: 7%

## O=C1c2c(O)cc(O)cc2OC(c2ccc(O)c(O)c2)C1O (centres unmarked) [Taxifolin]
[2]
  IC50: 3.22 ± 0.23 µM
[2]; at 50 μM compound
  percent inhibition against OXA-48: 76%

## O=C(O)[C@H]1/C(=C/CO)O[C@@H]2CC(=O)N21 [clavulanic acid]
[9]
  partition ratio: 2,500
